These results are taken from patent publication US12090128B2, “Dispersible formulations of n-((r)-2,3-dihydroxypropoxy)-3,4-difluoro-2-(2-fluoro-4-iodo-phenylamino)-benazmide and uses thereof” (SpringWorks Therapeutics, Inc., priority 2021, dated 2024).

A short description of the data set: Storage stability of crystalline Form IV by XRPD and/or DSC. It counts as physicochemical. As to the method: FIG. 3A is an XRPD corresponding to essentially pure Form IV of N—((R)-2,3-dihydroxypropoxy)-3,4-difluoro-2-(2-fluoro-4-iodo-phenylamino)-benzamide after storage for 68 months after production at 25° C. and ≤65% relative humidity.
FIG. 3B is an XRPD corresponding to essentially pure Form IV of N—((R)-2,3-dihydroxypropoxy)-3,4-difluoro-2-(2-fluoro-4-iodo-phenylamino)-benzamide after storage for 140 months after production at 25° C. and ≤65% relative humidity.
In some aspects, the XRPD pattern is generated using a PANALYTICAL® X'Pert Pro diffractometer using Ni-filtered Cu Kα (45 kV/40 mA) radiation and a step size of 0.03° 2θ with a X′CELERATOR® Real Time Multi-Strip detector, configured (a) on the incidental beam side as follows: variable divergence slits (10 mm irradiated length), 0.04 rad Soller slits, fixed anti-scatter slit (0.50°), and 10 mm beam mask, and (b) on the diffracted beam side as follows: variable anti-scatter slit (10 mm observed length) and 0.04 rad Soller slit or a BRUKER® D8® ADVANCE™ system using Cu Kα (40 kV/40 mA) radiation and a step size of 0.03° 2θ with a LYNXEYE™ detector, configured (a) on the incidental beam side as follows: Goebel mirror, mirror exit slit (0.2 mm), 2.5° Soller slit, beam knife, and (b) on the diffracted beam side as follows: anti-scatter slit (8 mm) and 2.5° Soller slit; wherein samples are mounted flat on zero-background Si wafers. […]

On to `O=C(NOC[C@H](O)CO)c1ccc(F)c(F)c1Nc1ccc(I)cc1F` [essentially pure Form IV, N—((R)-2,3-dihydroxypropoxy)-3,4-difluoro-2-(2-fluoro-4-iodo-phenylamino)-benzamide], for which the “XRPD pattern and/or DSC profile after storage” value by setting is: (storage for 68 months at standard warehouse conditions (15° C.-25° C. and ≤65% relative humidity), FIG. 3A) “substantially unchanged”; (storage for ≥140 months at standard warehouse conditions (15° C.-25° C. and ≤65% relative humidity), FIG. 3B) “substantially unchanged”.
